Measurements as given in patent US8881823B2, “Environmentally friendly low temperature breaker systems and related methods” (Halliburton Energy Services, Inc., priority 2011, dated 2014).

How the values were obtained:
[1] = Active toxicity test of GLDA on Rainbow trout (OECD 203); type: in vivo, Oncorhynchus mykiss; details: rainbow trout (Oncorhynchus mykiss), in vivo, OECD 203, 96-h
Procedure: (§1) GLDA was also tested for its eco-toxicological effect on various environmental subjects. In particular, the active toxicity of GLDA was measured on various organisms following OECD 201, 202 and 203 protocols.

[2] = tested on: Rainbow trout (Oncorhynchus mykiss); experiment: as above; type: in vivo; details: OECD 203, 96-h
Procedure: as §1

[3] = set-up: species or system Alga; details: alga, in vivo
Procedure: as §1

Alga = details: Alga, in vivo, 72 h
Procedure: as §1

[4] = Biodegradability, OECD 301 D Closed Bottle Test
From the text: The same protocol was used to test EDTA (“DISSOLVINE AM3-40” available from AkzoNobel Corporate) and sodium acetate.

[5] = Chemical oxygen demand (COD) test; type: physicochemical
From the text: Table 2 compares the biodegradability of GLDA and EDTA and summarizes chemical oxygen demand (COD) tests which indirectly measures the amount of organic compounds in water.

[6] = Miscibility and pH of breaker systems in fresh water; type: physicochemical; details: breaker system in fresh water, 150° F. for 16 hours
Procedure: Several chelating agents and acids (breaker systems) were tested for their calcium carbonate dissolving capacity and miscibility in fresh water. Tests of the breaker systems were performed by adding a known volume of breaker system to a volume of brine needed to fill 100 ml in a jar. The jars were then sealed and swirled to mix the components. Samples containing 5%, 10%, or 20% v/v of chelating agents and acids were prepared. The jars were then placed in a static oven at 150° F. for 16 hours. Afterwards, miscibility of the components was observed and the pH of each mixture was tabulated.

[7] = Calcite dissolving capacity of breaker systems; type: physicochemical; details: 2.5 g BARACARB 5 in 50 mL test fluid, one hour
Procedure: The calcite dissolving capacity of each breaker system was determined in the following manner. A known amount of a technical grade calcium carbonate (commercially available from Halliburton under the tradename “BARACARB 5”) was dried in an oven for 2 hours. […] The solution was subsequently filtered with a 1 micron fiber glass filter paper.

[8] = Dissolution and miscibility tests in sodium bromide brines; type: physicochemical; details: for % Complexed or Dissolved / Final Weight of BARACARB 5: 2.5 g BARACARB 5, 150° F., 16 hours
Procedure: Dissolution and miscibility tests were also performed on 20% GLDA in sodium bromide brines. 20% GLDA was mixed in various concentration of NaBr in order to evaluate the effect of brine concentration on the dissolving capacity of GLDA. Without being limited by theory, it is believed that reducing the amount of available free water in the brine reduced the dissociation rate of the acid functionalities on the breaker, which in turn reduced the amount of complexed calcium ions. These tests were performed in 20% v/v breaker systems in 10.2 lb/gal KCl/NaBr brine or 12.5 lb/gal NaBr brine. In each case, 2.5 g of BARACARB 5 calcium carbonate was added to the breaker systems at 150° F. for 16 hours. For comparison, a mineral acid breaker system was also tested.

[9] = Multiple step return permeability test; details: 20% GLDA solution in 11 lb/gal sodium bromide, 16 hours soak, approximately 110° F.
From the text: To simulate the performance of a breaker solution in potential downhole applications, a 20% GLDA solution in 11 lb/gal sodium bromide was used in a multiple step return permeability test on a low permeability Berea Sandstone core plug. The following procedure was used.
A 1.0″ diameter core plug was cut out of a Berea Sandstone block having low permeability (about 20% porosity). The core plug was inserted into a containment sleeve of a manual return permeameter (MRP). The pressure chamber was sealed and the temperature was maintained at approximately 110° F., while the confining pressure was at approximately 2,500 psi. Once the temperature and overburden pressure stabilized, isoparaffin solvent (“SOLTROL® 170” commercially available from Chevron Phillips Chemical Company) filtered to 0.45 micron, was produced through the core at 4 ml/min against approximately 200 psi back-pressure. […] The initial and final permeability values were calculated using Darcy's Law for linear flow: […]
Treatment simulation in the lab involved three separate steps, each step potentially causing formation damage or a reduction in permeability. […] Once the displacement of the drill-in fluid was complete, the damage caused by the previous three injection steps was evaluated by pumping of SOLTROL® 170 through the core until a constant permeability was obtained using the same procedure used for the initial permeability. […]

[10] = Compatibility and dissolution ability in potassium formate brine; type: physicochemical; details: for % Dissolved or precipitated out / Amount of carbonate remaining: 20% v/v breaker; for Amount of carbonate remaining: 2.5 g calcium carbonate, 16 hours, * = precipitation of formate salts
Procedure: In this Example, the compatibility and dissolution ability of various breaker systems with formate brine were evaluated. […] For each sample a 20% v/v breaker sample was prepared in three different concentrations of potassium formate brine (11 ppg, 12 ppg, and 13 ppg).
To determine the compatibility of each breaker with the potassium formate brine, each sample was checked for the formation of formate salts. This precipitation was indicative of an incompatibility of the breaker system with the formate brine. Samples in which precipitation was observed are noted with an asterisk (*).
The dissolution ability of the breaker systems was also tested in the various concentration of formate brine. […] The jars were then dried in an 90° F. oven for 16 hours. After the elapsed time, the amount of carbonate that remained was weighed and tabulated. The difference in weight represented the amount of carbonate that was dissolved by the breaker system and/or precipitated out as a result of being incompatible with the formate brine.

[11] = 20% v/v breaker in 10.2 lb/gal KCl/NaBr
[12] = 20% v/v breaker in 12.5 lb/gal NaBr

O=C(O)CC[C@@H](C(=O)O)N(CC(=O)O)CC(=O)O [GLDA, L-glutamic acid N,N-diacetic acid]
LC50 at 96 h [1]: > 100 µg/mL | 96-h NOEC [2]: NOEC ≧ 100 mg/l | EC50 at 72 h [3]: > 100 µg/mL | 72-h NOEC (Alga): NOEC ≧ 100 mg/l | Biodegradability [4]: Easy | biodegradability (in words) [4]: readily biodegradable | COD [5]: 345 to 385 mg/g | pH [6]: >12 | % Carbonate Complexed or Dissolved [7]: 19.6% | Final Weight of BARACARB 5, g [7]: 2.01 g | % Complexed or Dissolved [8, 11]: 49% | Final Weight of BARACARB 5 [8, 11]: 1.27 g | % Complexed or Dissolved [8, 12]: 29% | Final Weight of BARACARB 5 [8, 12]: 1.78 g | carbonate dissolved (FIG. 2) ([8]; higher brine concentration): less than 45% | carbonate dissolved (FIG. 2) ([8]; lower brine concentration): more than 80% | return permeability after the breaker cleanup, % of the initial permeability [9]: 94% | compatibility with the formate brine ([10]; 20% v/v breaker, 11, 12 and 13 ppg potassium formate, precipitation of formate salts = incompatible): fully compatible with the formate brine | % Dissolved or precipitated out ([10]; 11 ppg Potassium Formate): 48% | Amount of carbonate remaining ([10]; 11 ppg Potassium Formate): 1.05 g | % Dissolved or precipitated out ([10]; 12 ppg Potassium Formate): 33% | Amount of carbonate remaining ([10]; 12 ppg Potassium Formate): 1.67 g | % Dissolved or precipitated out ([10]; 13 ppg Potassium Formate): 20% | Amount of carbonate remaining ([10]; 13 ppg Potassium Formate): 2.00 g
